Laboratory results as given in US10968203B2, “Pyrimidinyl-pyridyloxy-naphthyl compounds and methods of treating IRE1-related diseases and disorders” (Genentech, Inc., priority 2017, dated 2021).
Where a name gives a salt, the structure may show the parent alone. Read-outs that look alike come from different tables or passages of the source.

System: XBP1s-luc 293 LUC
Experiment: cellular PD assay, XBP1s-LUC reporter (Example 903)
Assay type: cell-based
Conditions: read-out: XBP1s-luc 293 LUC (IC50)
Summary of the method: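 A luciferase fusion, in frame and expressed only when the XBP1 transcript is spliced, served as the readout of cellular IRE1α activity in an XBP1-Luc reporter line.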

`CCCS(=O)(=O)Nc1c(F)ccc2c(Oc3ncccc3-c3ccnc(N[C@@H]4CNC[C@H](C)C4)n3)c(C)ccc12` [Example 367, N-(2-Fluoro-6-methyl-5-((3-(2-(((3S,5R)-5-methylpiperidin-3-yl)amino)pyrimidin-4-yl)pyridin-2-yl)oxy)naphthalen-1-yl)propane-1-sulfonamide] showed an IC50 (Table 1) of 14.5 nM.
`Cc1ccc2c(NC(=O)C3(C)CC3)cccc2c1Oc1ncccc1-c1ccnc(N[C@@H]2CNC[C@H](C)C2)n1` [Example 368, 1-Methyl-N-(6-methyl-5-((3-(2-(((3S,5R)-5-methylpiperidin-3-yl)amino)pyrimidin-4-yl)pyridin-2-yl)oxy)naphthalen-1-yl)cyclopropanecarboxamide] was tested, and the IC50 (Table 1) was 214 nM.
`Cc1ccc2c(NS(=O)(=O)CC(C)C)c(F)ccc2c1Oc1ncccc1-c1ccnc(N[C@@H]2CNC[C@H](C)C2)n1` [Example 369, N-(2-Fluoro-6-methyl-5-((3-(2-(((3S,5R)-5-methylpiperidin-3-yl)amino)pyrimidin-4-yl)pyridin-2-yl)oxy)naphthalen-1-yl)-2-methylpropane-1-sulfonamide] gave an IC50 (Table 1) of 19.4 nM.
For `CCCS(=O)(=O)Nc1c(Cl)ccc2c(Oc3ncccc3-c3ccnc(N[C@H]4CCCNC4)n3)c(C)ccc12` [Example 370, (S)—N-(2-Chloro-6-methyl-5-((3-(2-(piperidin-3-ylamino)pyrimidin-4-yl)pyridin-2-yl)oxy)naphthalen-1-yl)propane-1-sulfonamide], the IC50 (Table 1) was 27.6 nM.
Compound `Cc1nc(CNc2c(F)ccc3c(Oc4ncccc4-c4ccnc(N[C@H]5CCCNC5)n4)c(C)ccc23)cs1` [Example 371, (S)-4-(2-((6-Fluoro-2-methyl-5-(((2-methylthiazol-4-yl)methyl)amino)naphthalen-1-yl)oxy)pyridin-3-yl)-N-(piperidin-3-yl)pyrimidin-2-amine] has an IC50 (Table 1) of 381 nM.
`Cc1ccc2c(NC(=O)CC(C)(C)C)c(F)ccc2c1Oc1ncccc1-c1ccnc(N[C@@H]2CNC[C@H](C)C2)n1` [Example 374, N-(2-Fluoro-6-methyl-5-((3-(2-(((3S,5R)-5-methylpiperidin-3-yl)amino)pyrimidin-4-yl)pyridin-2-yl)oxy)naphthalen-1-yl)-3,3-dimethylbutanamide] showed an IC50 (Table 1) of 39.4 nM.
Compound `Cc1ccc2c(NS(=O)(=O)CC(F)(F)F)c(F)ccc2c1Oc1ncccc1-c1ccnc(N[C@@H]2CNC[C@H](C)C2)n1` [Example 375, 2,2,2-Trifluoro-N-(2-fluoro-6-methyl-5-((3-(2-(((3S,5R)-5-methylpiperidin-3-yl)amino)pyrimidin-4-yl)pyridin-2-yl)oxy)naphthalen-1-yl)ethanesulfonamide] has an IC50 (Table 1) of 13.2 nM.
Compound `Cc1ccc2c(Oc3ncccc3-c3ccnc(N[C@H]4CCCNC4)n3)c(C)ccc2c1NS(=O)(=O)CC(C)C` [Example 376, (S)—N-(2,6-Dimethyl-5-((3-(2-(piperidin-3-ylamino)pyrimidin-4-yl)pyridin-2-yl)oxy)naphthalen-1-yl)-2-methylpropane-1-sulfonamide] has an IC50 (Table 1) of 73.5 nM.
`Cc1ccc2c(NC[C@H](O)C(F)(F)F)c(F)ccc2c1Oc1ncccc1-c1ccnc(N[C@H]2CCCNC2)n1` [Example 377, (S)-1,1,1-Trifluoro-3-((2-fluoro-6-methyl-5-((3-(2-((S)-piperidin-3-ylamino)pyrimidin-4-yl)pyridin-2-yl)oxy)naphthalen-1-yl)amino)propan-2-ol] gave an IC50 (Table 1) of 10.2 nM.
`Cc1ccc2c(NS(=O)(=O)Cc3ccccc3)c(F)ccc2c1Oc1ncccc1-c1ccnc(N[C@@H]2CNC[C@H](C)C2)n1` [Example 378, N-(2-Fluoro-6-methyl-5-((3-(2-(((3S,5R)-5-methylpiperidin-3-yl)amino)pyrimidin-4-yl)pyridin-2-yl)oxy)naphthalen-1-yl)-1-phenylmethanesulfonamide] gave an IC50 (Table 1) of 1.41 nM.
`Cc1ccc2c(N[C@H](C)[C@@H](C)O)cccc2c1Oc1ncccc1-c1ccnc(N[C@H]2CCCNC2)n1` [Example 381, anti-3-((6-Methyl-5-((3-(2-(((S)-piperidin-3-yl)amino)pyrimidin-4-yl)pyridin-2-yl)oxy)naphthalen-1-yl)amino)butan-2-ol] gave an IC50 (Table 1) of 403 nM.
`Cc1ccc2c(NC3CCCC[C@H]3O)cccc2c1Oc1ncccc1-c1ccnc(N[C@H]2CCCNC2)n1` (stereo partly drawn) [Example 384, trans-2-((6-Methyl-5-((3-(2-((S)-piperidin-3-ylamino)pyrimidin-4-yl)pyridin-2-yl)oxy)naphthalen-1-yl)amino)cyclohexanol] was tested, and the IC50 (Table 1) was 146 nM.
`CCCS(=O)(=O)Nc1cccc2c(Oc3ncc(Cl)cc3-c3ccnc(N[C@H]4CCCNC4)n3)c(C)ccc12` [Example 385, (S)—N-(5-((5-Chloro-3-(2-(piperidin-3-ylamino)pyrimidin-4-yl)pyridin-2-yl)oxy)-6-methylnaphthalen-1-yl)propane-1-sulfonamide] was tested, and the IC50 (Table 1) was 366 nM.
In the case of `Cc1ccc2c(NS(=O)(=O)Cc3ccccc3F)c(F)ccc2c1Oc1ncccc1-c1ccnc(N[C@H]2CCCNC2)n1` [Example 391, (S)—N-(2-Fluoro-6-methyl-5-((3-(2-(piperidin-3-ylamino)pyrimidin-4-yl)pyridin-2-yl)oxy)naphthalen-1-yl)-1-(2-fluorophenyl)methanesulfonamide], the IC50 (Table 1) is reported as 2.77 nM.
`Cc1ccc2c(NS(=O)(=O)Cc3ccccc3C(F)(F)F)c(F)ccc2c1Oc1ncccc1-c1ccnc(N[C@H]2CCCNC2)n1` [Example 392, (S)—N-(2-Fluoro-6-methyl-5-((3-(2-(piperidin-3-ylamino)pyrimidin-4-yl)pyridin-2-yl)oxy)naphthalen-1-yl)-1-(2-(trifluoromethyl)phenyl)methanesulfonamide] was tested, and the IC50 (Table 1) was 6.32 nM.
`CCCCS(=O)(=O)Nc1c(F)ccc2c(Oc3ncccc3-c3ccnc(N[C@H]4CCCNC4)n3)c(C)ccc12` [Example 397, (S)—N-(2-Fluoro-6-methyl-5-((3-(2-(piperidin-3-ylamino)pyrimidin-4-yl)pyridin-2-yl)oxy)naphthalen-1-yl)butane-1-sulfonamide hydrochloride] was tested, and the IC50 (Table 2) was 34 nM.
`Cc1ccc2c(NS(=O)(=O)CCC(F)F)c(F)ccc2c1Oc1ncccc1-c1ccnc(N[C@H]2CCCNC2)n1` [Example 398, (S)-3,3-Difluoro-N-(2-fluoro-6-methyl-5-((3-(2-(piperidin-3-ylamino)pyrimidin-4-yl)pyridin-2-yl)oxy)naphthalen-1-yl)propane-1-sulfonamide hydrochloride] gave an IC50 (Table 2) of 22 nM.
`Cc1ccc2c(NS(=O)(=O)CCC3CC3)c(F)ccc2c1Oc1ncccc1-c1ccnc(N[C@H]2CCCNC2)n1` [Example 399, (S)-2-Cyclopropyl-N-(2-fluoro-6-methyl-5-((3-(2-(piperidin-3-ylamino)pyrimidin-4-yl)pyridin-2-yl)oxy)naphthalen-1-yl)ethanesulfonamide hydrochloride] was tested, and the IC50 (Table 2) was 72 nM.
Compound `Cc1ccc2c(NS(=O)(=O)CC3CCC3)c(F)ccc2c1Oc1ncccc1-c1ccnc(N[C@H]2CCCNC2)n1` [Example 400, (S)-1-Cyclobutyl-N-(2-fluoro-6-methyl-5-((3-(2-(piperidin-3-ylamino)pyrimidin-4-yl)pyridin-2-yl)oxy)naphthalen-1-yl)methanesulfonamide hydrochloride] has an IC50 (Table 2) of 26 nM.
With `Cc1ccc2c(NS(=O)(=O)CC(C)C)c(F)ccc2c1Oc1ncccc1-c1ccnc(N[C@@H]2CNC[C@@H](C)C2)n1` [Example 401, N-[2-Fluoro-6-methyl-5-[[3-[2-[[(3S,5S)-5-methyl-3-piperidyl]amino]pyrimidin-4-yl]-2-pyridyl]oxy]-1-naphthyl]-2-methyl-propane-1-sulfonamide hydrochloride] the IC50 (Table 2) was 67 nM.
